Experimental data reported in publication PMC4585962, “A peptide factor secreted by Staphylococcus pseudintermedius exhibits properties of both bacteriocins and virulence factors” (Scientific Reports, 2015).
No end group written: not given here. *: point of attachment. For = O=C*

Assays:
E. coli DH5α (pALCP2G) = experiment: GFP release assay; type: cell-based, Escherichia coli; conditions: 2 × 10^6 CFU in PBS, 1 h 37 °C, 0.23 to 15 μM BacSp222, fluorescence of supernatant 480/510 nm
Protocol: The bacteria transformed with GFP-encoding plasmids (pCN68[59] for S. aureus RN4220; pALCP2G[60] for B. subtilis 1A751[61] and E. coli DH5α) were grown overnight in TSB supplemented with appropriate antibiotics, washed twice and finally suspended in PBS. Fifty microliters of the suspensions containing 2 × 10^6 CFU of bacteria were then incubated for 1 h at 37 °C with serial dilutions of BacSp222 at concentrations ranging from 0.23 to 15 μM. Then, the bacteria were spun down, and the fluorescence in the supernatant was determined (Synergy H1 microplate reader, BioTek, 480/510 nm excitation/emission wavelengths). As the controls for 100% GFP release, S. aureus and B. subtilis were lysed using lysostaphin and chicken egg white lysozyme (Sigma), respectively, whereas the E. coli cells were disrupted by ultrasonication.

V8 peptidase = target: T1, V8 peptidase (Staphylococcus aureus, UniProt P0C1U8); experiment: Susceptibility to proteolysis, residual bactericidal activity; type: in vitro ADME, S. aureus; conditions: 30 μM peptide, 100 mM sodium phosphate pH 7.8, enzyme:peptide 1:50 or 1:10 (w/w), 3 hours, 37 °C; residual activity by radial diffusion assay on B. subtilis; triplicate
T1 construct: purchased Biocentrum
T1 sequence (P0C1U8 69-336): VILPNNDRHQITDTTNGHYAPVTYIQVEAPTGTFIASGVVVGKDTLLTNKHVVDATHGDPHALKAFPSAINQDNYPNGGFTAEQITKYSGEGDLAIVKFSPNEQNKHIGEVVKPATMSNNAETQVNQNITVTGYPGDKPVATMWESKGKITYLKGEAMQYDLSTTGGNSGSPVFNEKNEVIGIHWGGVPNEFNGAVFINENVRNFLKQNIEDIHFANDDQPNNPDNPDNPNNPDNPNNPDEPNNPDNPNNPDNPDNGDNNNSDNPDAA
Protocol: (§1) The bactericidal activity of BacSp222 was also determined using the radial diffusion assay. In TSB agar (1%, w/v) containing a 200× diluted overnight culture of Bacillus subtilis ATCC 6633, wells of 2.4-mm diameter were created by drilling out the agar and filling the hole with 10 μl of the BacSp222 preparation for testing. Following overnight incubation at 37 °C, the bactericidal activity was measured as the area of the inhibition zones.
(§2) The temperature stability of BacSp222 (30 μM final concentration) was determined in PBS. The solution was incubated for 1 or 3 h at 72 °C (typical temperature of pasteurization) or at 100 °C. Independently, a solution of bacteriocin was also subjected to a full cycle of autoclaving (20 min at 121 °C). The susceptibility of BacSp222 to proteolysis was verified using S. aureus staphopain C and V8 peptidase, human neutrophil elastase, human cathepsin G (Biocentrum), bovine TPCK-treated trypsin, pepsin from porcine gastric mucosa (Sigma), and proteinase K (A&A Biotechnology). […] The residual activity was determined with the radial diffusion assay using Bacillus subtilis as an indicator strain. […]

staphopain C (StpC) = experiment: as above; type: in vitro ADME, S. aureus; conditions: 30 μM peptide, 100 mM Tris-HCl pH 7.5 with 5 mM cysteine hydrochloride and 5 mM EDTA, enzyme:peptide 1:50 or 1:10 (w/w), 3 hours, 37 °C; residual activity by radial diffusion assay on B. subtilis; triplicate
Protocol: as §1, §2

Substance: For-MAGLLRFLLSKGRALYNWAKSHVGKVWEWLKSGATYEQIKEWIENALGWR [BacSp222]
- leakage of GFP from recombinant cells (E. coli DH5α (pALCP2G)): not
- activity of BacSp222 after incubation with the enzyme (V8 peptidase): not significantly reduced
- activity of BacSp222 after incubation with the enzyme (staphopain C (StpC)): not significantly reduced
